The values that follow come from patent US11591363B2, “Crystalline forms of beta-sitosterol” (CENTER FOR I[…] IN CRYSTAL ENGINEERING, S.L., priority 2017, dated 2023).

Data set [1] is described as follows: Solubility test, shake-flask in FaSSIF-V2. As to conditions: for solubility at 24 h: thermodynamic from solid, read-out: Log S (logarithm of S in mol/L) (converted); for solubility, comparison between tested samples: FaSSIF-V2, pH 6.5, 25° C. The format is physicochemical. As for the experimental part: This test is focused on evaluating the solubility in Fasted State Simulated Intestinal Fluid (FaSSIF-V2).
5.1. Samples • Comparative sample A (reference): Standard sample of beta-Sitosterol from the Ph. Eu. Reference Standard, ref. (Y0001615) • Sample A: hydrate crystal of beta-sitosterol having 1.25 molecules of water of the present invention • Sample B: cocrystal of beta-sitosterol and gallic acid Form 5 of the present invention
Solubility is determined in FaSSIF-V2 media, prepared as stated by Biorelevant.com using maleic acid buffer (pH=6.5).
All experiments are done under temperature control at 25±1° C. The weight of tested samples expressed in mg, and FaSSIF final volume expressed in mL are as defined in Table below:
Shaking time: 24 h in a rotational stirrer. After 4-5 h of shaking, pH is measured and readjusted to the initial value (6.5) in case it is needed. • Equilibration time: 24 h • Final pH measurement • Phase separation: filtration through a hydrophilic filter (PTFE membrane, 0.45 μm porous size, 4 mm diameter, Millex-LH, Millipore). Before the filtration, the filter was conditioned with sample solution for 1 h. After that time, filtration started rejecting the first drops of sample. • Solid form characterization: solid obtained after filtration is analysed by XRPD to know the exact solid form obtained after the shake-flask procedure. In case of cocrystals, XRPD analysis confirms that experiments are done under eutectic point conditions. • Liquid phase is used for API and coformer quantification.
5.3.2. HPLC Quantification • Instrument: Shimadzu HPLC, with diode array detector (SPD-M10AVPI), two pumps (LC-10ADVP), autoinjector (SIL-10ADVP) and column oven (CTO-10ASVP). • Column:
For comparative sample A and sample A quantification: Phenomenex Kinetex C18, 100×4.6 mm, 2.6 μm. For sample B quantification: Phenomenex Luna C18, 150×4.6 mm, 5 μm. • Conditions:
For comparative sample A and sample A quantification: Mobile phase composed of 80% Methanol-20% Acetonitrile. Isocratic conditions. Flow: 0.8 mL/min. Injection volume: 20 μL.
For sample B quantification: Mobile phase composed of 20 mM formic acid at pH=3 (A) and methanol (B). Gradient conditions: 0-3 min, 5% B; 8 min, 10% B; 15 min, 100% B; 17 min, 5% B; 25 min, 5% B. Flow: 1 mL/min. Injection volume: 10 μL.
Quantification wavelength: 210 nm for comparative sample A and 280 nm for sample A.
The amounts of comparative sample A, sample A and sample B in the filtered solutions coming from Shake-Flask (SF) experiments have been quantified according to the described methodology.
Solubility of the samples A and B has been calculated through the equilibrium concentrations in the eutectic point as described in “S. J. Bethune, N. Huang, A. Jayasankar, N. Rodriguez-Hornedo, Crystal Growth and Design 9, 2009, 3976-3988”, taking into account the stoichiometry of each sample.

Data set [2] in a line: Particle size test by laser diffraction. The format is physicochemical. The text has this: This test provides the particle size of the co-crystals of the present invention in comparison with the comparaitive Standard sample of beta-Sitosterol from the Ph. Eu. Reference Standard, ref. (Y0001615)
7.1. Tested Samples • Comparative sample A: comparaitive Standard sample of beta-Sitosterol from the Ph. Eu. Reference Standard, ref. (Y0001615) • Sample A: hydrate crystal of beta-sitosterol having 1.25 molecules of water of the present invention • Sample B: cocrystal of beta-sitosterol and gallic acid Form 5 of the present invention • Sample C: cocrystal of beta-sitosterol and propionic acid Form 2 of the present invention
The particle size was performed by laser diffraction. For this purpose, a Beckman-Coulter model. LS13320 laser diffractometer (Fullerton, Calif., USA) was equipped with a Micro. Liquid Module (MLM) wet dispersion modul, an an optic model (Fraunhofer. Rdf, PIDS). The measurement range is 0.4-2000 μm.

Data set [3] concerns Plasma cholesterol levels. The experiment in a line: Activity test: plasma cholesterol after oral load of lard. The format is in vivo, Golden Syrian male Hamsters. The conditions noted are these: measured at 5 h (T5) vs T0, oral load of lard 2.5 g/kg BW supplemented with 0.513 g/kg BW.
Data set [4] deals with Plasma triglyceride levels. The experiment in a line: Activity test: plasma triglycerides after oral load of lard. The conditions noted are these: for reduction of the plasmatic triglyceride concentration: T5 (5 h) vs T0. The data set is classed as in vivo, Golden Syrian male Hamsters.
The subject of data set [5] is circulating β-sitosterol levels. The experiment in a line: Activity test: sitosterolemia (plasma beta-sitosterol, GC-FID) after oral load of lard. The data set is classed as in vivo, Golden Syrian male Hamsters. As to conditions: for decrease in circulating levels of β-sitosterol: 5 h post-treatment (T5) with respect to T0 value, oral load of lard 2.5 g/kg BW supplemented with 0.513 g/kg BW.

Data set [6] is described as follows: Bioavailability assessment: plasma beta-sitosterol after 21 days high-fat diet.
Setting [7] is: FaSSIF-V2, pH 6.5, 25±1° C., shake-flask 24 h, value (SD).

In brackets after ≈: the same amount, converted by molar mass. Read-outs that look alike come from different tables or passages of the source.

Take `CC[C@H](CC[C@@H](C)[C@H]1CC[C@H]2[C@@H]3CC=C4C[C@@H](O)CC[C@]4(C)[C@H]3CC[C@]12C)C(C)C` [Comparative sample A, beta-sitosterol]: in data set [1] (FaSSIF-V2, 25 °C, pH 6.5, fassif, FaSSIF-V2, pH 6.5, 25±1° C., shake-flask 24 h, value (SD)), the solubility at 24 h is 0.851 µM (≈ 0.353 µg/mL). Moreover, the “[API] concentration of beta-sitosterol in the solutions coming from SF experiments” value (from here on “[API] concentration of beta-sitosterol”) in data set [1] (setting [7]) is recorded as 0.36 (0.06) mg/mL. Besides, in data set [2], the D10 is 44.62 μm; the D50 is reported as 108.0 μm; the D90 came to 178.8 μm; the “D(3, 2) surface weighted mean diameter” value stood at 30.19 μm. The same compound displayed a Mean particle size in data set [2] of 109.9 μm.

For the compound `CC[C@H](CC[C@@H](C)[C@H]1CC[C@H]2[C@@H]3CC=C4C[C@@H](O)CC[C@]4(C)[C@H]3CC[C@]12C)C(C)C` [cocrystal Form 2, cocrystal of beta-sitosterol and propionic acid], in data set [3] (listed as Test sample C), the “decrease of plasmatic cholesterol levels” value is reported as 21%. The “plasma triglyceride concentrations at T5, comparison between groups (FIG. 15)” value in data set [4] (5 h post-oral fat load, 0.513 g/kg BW) is “lower levels at T5 in comparison with both Compound A and compound B”. In addition, the “reduction of the plasmatic triglyceride concentration” value (shortened to “reduction”) in data set [4] (oral load of lard 2.5 g/kg BW supplemented with 0.513 g/kg BW, listed as test sample C) turned out to be 20%. Besides, in data set [5] (listed as test sample C), the “decrease in circulating levels of β-sitosterol” value (shortened to “decrease in circulating levels”) is 14%. In addition, in data set [6] (0.264 g beta-sitosterol/kg BW, control set to 1, listed as test sample C), the “Fold-change (FC) of increase of circulating beta-sitosterol with respect to controls (comparative group A)” value was 6.4. Further, in data set [6] (same dose 0.264 g beta-sitosterol/kg BW), the “FC increment of circulating beta-sitosterol in relation to reference sample B1 value” came out at 2.7. In data set [2] (listed as Sample C), the D10 is given as 6.671 μm; the D50 is reported as 28.01 μm; the D90 came out at 47.60 μm; the “D(3, 2) surface weighted mean diameter” value worked out at 13.19 μm. The compound also returned a Mean particle size in data set [2] (listed as Sample C) of 27.77 μm.

As for `CC[C@H](CC[C@@H](C)[C@H]1CC[C@H]2[C@@H]3CC=C4C[C@@H](O)CC[C@]4(C)[C@H]3CC[C@]12C)C(C)C` [comparative sample B, beta-sitosterol], the “decrease of plasmatic cholesterol levels” value in data set [3] was determined as 25%. For the same compound, the “increase in triglyceridemia at 5 h (T5)” value in data set [4] (T5 vs T0, oral load of lard 2.5 g/kg BW supplemented with 0.513 g/kg BW) was 39%. Besides, the “decrease in circulating levels” value in data set [5] amounted to 23%. For the same compound, in data set [5] (5 h post-treatment, 0.513 g/kg BW), the “percentage of variation on β-sitosterol plasma levels T5 vs T0, comparison with control (FIG. 16)” value was “decrease in comparison with control (group A)”.

As to `CC[C@H](CC[C@@H](C)[C@H]1CC[C@H]2[C@@H]3CC=C4C[C@@H](O)CC[C@]4(C)[C@H]3CC[C@]12C)C(C)C` [hydrate crystal form of beta-sitosterol, beta-sitosterol], in data set [3] (listed as test sample D), the “decrease of plasmatic cholesterol levels” value was determined as 29%. In data set [1] (25 °C, FaSSIF-V2, pH 6.5, 25±1° C., calculated through the equilibrium concentrations in the eutectic point, taking into account stoichiometry), the solubility at 24 h was 5.01 µM. In addition, the “solubility, comparison between tested samples” value in data set [1] was “more soluble than the commercially available beta-sitosterol”. In addition, the “[API] concentration of beta-sitosterol” value in data set [1] (FaSSIF-V2, pH 6.5, 25±1° C., shake-flask 24 h, value (SD), listed as Sample A) is reported as 2.5 (1) mg/mL. Moreover, the “reduction” value in data set [4] (oral load of lard 2.5 g/kg BW supplemented with 0.513 g/kg BW, listed as test sample D) came to 2%. For the same compound, the “decrease in circulating levels” value in data set [5] (listed as test sample D) stood at 34%. In data set [2] (listed as Sample A), the D10 was 4.145 μm; the D50 was determined as 16.39 μm; the D90 is given as 34.63 μm; the “D(3, 2) surface weighted mean diameter” value was 8.558 μm. Besides, in data set [2] (listed as Sample A), the Mean particle size worked out at 18.12 μm.

As to `CC[C@H](CC[C@@H](C)[C@H]1CC[C@H]2[C@@H]3CC=C4C[C@@H](O)CC[C@]4(C)[C@H]3CC[C@]12C)C(C)C` [reference sample B1, beta-sitosterol], the “Fold-change (FC) of increase of circulating beta-sitosterol with respect to controls (comparative group A)” value in data set [6] (0.264 g beta-sitosterol/kg BW, control set to 1) was found to be 2.4.

For `CC[C@H](CC[C@@H](C)[C@H]1CC[C@H]2[C@@H]3CC=C4C[C@@H](O)CC[C@]4(C)[C@H]3CC[C@]12C)C(C)C` [reference sample B2, beta-sitosterol], the “Fold-change (FC) of increase of circulating beta-sitosterol with respect to controls (comparative group A)” value in data set [6] (0.528 g/kg BW, control set to 1) came out at 5.3.

“cocrystal of beta-sitosterol and benzyl alcohol [cocrystal Form 4]”: the “decrease of plasmatic cholesterol levels” value in data set [3] turned out to be 31%. The “reduction” value in data set [4] (oral load of lard 2.5 g/kg BW supplemented with 0.513 g/kg BW) stood at 7%. Also, in data set [5], the “decrease in circulating levels” value was 12%.

Take “cocrystal of beta-sitosterol and gallic acid [cocrystal Form 5]”: in data set [1], the “solubility, comparison between tested samples” value was “more soluble than the remaining tested samples”. The “[API] concentration of beta-sitosterol” value in data set [1] (setting [7]) is 3.0 (1.5) mg/mL. The “Log S (logarithm of S in mol/L)” value in data set [1] (FaSSIF-V2, pH 6.5, 25±1° C., calculated through the equilibrium concentrations in the eutectic point, taking into account stoichiometry) was −4.7 (0.1) mol/L. Besides, in data set [6] (equivalent to 0.158 g of beta-sitosterol/kg BW, control set to 1), the “Fold-change (FC) of increase of circulating beta-sitosterol with respect to controls (comparative group A)” value stood at 4.7. Besides, the “Fold-change (FC) of increase of circulating beta-sitosterol with respect to controls (comparative group A)” value in data set [6] (equivalent to 0.330 g of beta-sitosterol/kg BW, control set to 1) was 7.9. In data set [2], the D10 was found to be 3.102 μm; the D50 is listed as 10.24 μm; the D90 is listed as 23.21 μm; the “D(3, 2) surface weighted mean diameter” value came to 6.009 μm. In data set [2], this compound gave a Mean particle size of 12.05 μm.
